Measured values from patent US11510928B2, “Use of mirtazapine in the treatment of inflammatory disorders, autoimmune disease and PBC” (UTI Limited Partnership, priority 2017, dated 2022).

Assays:
[1] = tested on: antigen-induced arthritis (mBSA); experiment: Antigen-induced arthritis (AIA) mouse model; format: in vivo; conditions: 20 mg/kg, 24 hrs post-antigen challenge
From the text: The antigen-induced arthritis (AIA) mouse model is a well-characterized model that is extensively used to provide insights into the pathogenesis of RA. AIA is critically dependent on an early innate immune response (within 24 hrs post-induction) mediated by synovial TM's and neutrophils which drive subsequent adaptive immune responses and chronic joint inflammation. Proinflammatory cytokines (eg. TNFα, IL-17A and IL-1) and chemokines (eg. CXCL1, CXCL2) recruit neutrophils to the joint in this model. AIA is induced by the intradermal (tail base) injection of 500 μg methylated BSA (mBSA; Sigma) in 50 μl saline+complete Freund's adjuvant (CFA; Sigma) on day 0. 14 days later mice receive an antigen challenge with mBSA (10 μg/10 μl saline) injection into the left knee joint. At various time points after antigen challenge knee swelling is assessed using calipers, and the knee cavity exposed and inflammatory response and tissue injury assessed by immune cell analyses (cell phenotyping by FACS, using our published protocols), cytokine/chemokine expression (by Luminex® and qRT-PCR), and scoring of histological joint damage. Assessment of joint innate immune responses will occur at 24 and 48 hrs post-antigen challenge42. […] Hypernociception was measured before and 24 hrs post-antigen challenge using an automatic dynamic plantar algesiometer (Hugo Basile Inc).

[2] = tested on: hepatic cytokine and chemokine milieu; experiment: Hepatic and plasma cytokine/chemokine levels after mirtazapine treatment (Luminex, LEGENDplex); format: in vivo, mouse
Experimental: Male 8-10 week old C57BL/6 mice (Jackson Labs, Bar Harbor, Me.) were used. All procedures were approved by the University of Calgary Animal Care Committee (protocol numbers AC14-0129 and AC14-0128) and were performed in accordance with the guidelines of the Canadian Council on Animal Care. […] Mirtazapine was suspended in 1% aqueous solution of Tween 80, whereas the control group received 1% aqueous solution of Tween 80. Blood and liver samples were collected 5 hours post-mirtazapine treatment (or 16 hours post-Con A treatment). The detailed experimental protocols, lists of antibodies and reagents used, flow cytometry gating, and immune cell phenotyping strategies, are described herein. To delineate the effect of mirtazapine treatment on hepatic cytokine/chemokine expression a Luminex® assay was used using methods as previously described. […] A panel of mouse cytokines/chemokines were simultaneously measured in liver homogenate samples using a mouse MILLIPLEX kit (Millipore, USA) according to the manufacturer's protocol. The multiplexing analysis was performed using the Luminex 100 system (Luminex®, USA; Eve Technologies Corporation, Calgary, Canada). Total protein concentrations in liver homogenates were quantified using a BCA Protein Assay kit (Pierce, USA) according to manufacturers instructions. Results were expressed as pg of analyte per mg of protein. Additional plasma and hepatic measurements were made using a bead-based LEGENDplex immunoassay. Plasma and hepatic levels of CXCL10/IP-10 and CXCL9/Mig were measured using BioLegend's LEGENDplex™ bead-based immunoassays in a 96-well v-bottom microplate, according to the manufacturer's protocol. At the end of the assay, all samples were transferred from the plate to FACS tubes and read on a flow cytometer (Attune® Acoustic Focusing Cytometer). After data acquisition, flow cytometry standard (FCS) files were analyzed using Biolegend's LEGENDplex data analysis software to calculate the concentrations of individual chemokines, and results were expressed as pg of analyte per mg of protein. Alternatively, the flow cytometry standard (FCS) files were analyzed using FlowJo software (Treestar, San Carlos, Calif.).

hepatic immune cells = experiment: Hepatic immune cell phenotyping by flow cytometry after mirtazapine treatment; format: in vivo, mouse
Experimental: Male 8-10 week old C57BL/6 mice (Jackson Labs, Bar Harbor, Me.) were used. All procedures were approved by the University of Calgary Animal Care Committee (protocol numbers AC14-0129 and AC14-0128) and were performed in accordance with the guidelines of the Canadian Council on Animal Care. To delineate the impact of mirtazapine treatment upon liver immune cell numbers and phenotype, and upon cytokine/chemokine networks within the liver, mice were treated with mirtazapine 1-20 mg/kg intraperitoneally^13-15. Mirtazapine was suspended in 1% aqueous solution of Tween 80, whereas the control group received 1% aqueous solution of Tween 80. […] The detailed experimental protocols, lists of antibodies and reagents used, flow cytometry gating, and immune cell phenotyping strategies, are described herein. […] Isolated hepatic leukocytes were subjected to direct immunofluorescence analyses using multicolor flow cytometry staining as previously described. Samples were acquired either using a FACScan flow cytometer (Becton Dickinson, Mountain View, Calif.) or AttuneTM Acoustic Focusing flow cytometer (Applied Biosytems, […], Burlington, ON). Data were analyzed using FlowJo® software (Treestar, Ashland, Oreg.). Gating proceeded as follows: gating of live cells and exclusion of duplet cells followed by gating on forward scatter (FSC) and side scatter (SSC) areas to identify regions appropriate to define live leukocytes. Within the leukocyte gate, the following cell subsets were identified: Regulatory T cells (CD4^+CD25^+Foxp3^+), monocytes (CD11b^+Ly6C^+), dendritic cells (CD11b^+CD11c^+), B Cells (CD3^-IgM^+), B1a B cells (IgM^+CD5^+CD^11b^+), B1b B cells (IgM^+CD5^-CD11b^+), and B2 B cells as (IgM^+CD5^-CD11b^-). Fluorescence-minus-one (FMO) controls were used for the accurate designation of cells with fluorescence above background levels. Appropriate isotype controls were used to determine the specificity of all antibodies used. Cell numbers were calculated based on the percentage of cells found in the gate of interest, and total cell numbers isolated from each liver.

circulating TNFα = conditions: patients with major depressive disorder; cited from earlier work
[3] = pilot study, 4 hrs post-treatment, 20 mg/kg (FIG. 13)
[4] = 20 mg/kg ip, 3 hrs post-treatment

In the case of CN1CCN2c3ncccc3Cc3ccccc3C2C1 (stereo not shown) [Mirtazapine], the AIA-induced hypernociception [1] is reported as “attenuates”, the “Joint total neutrophil recruitment” value [1] is reported as “reduces” and the “Synovial fluid CXCL1 levels” value [1] is reported as “but not CXCL1”. For the same compound, the “Synovial fluid IL-1α levels” value [1] was “reduces”, the “Synovial fluid TNFα levels” value [1] was “reduces” and the “Plasma levels of CXCL10/IP-10 and CXCL9/MIG vs vehicle” value ([2]; 5 hours post-treatment) was “significantly increased”. For the same compound, the “Increase in hepatic CXCL9 level vs vehicle” value ([2]; 5 hours post-treatment, ip) was about 7 fold, the “Increase in hepatic CXCL10 level vs vehicle” value ([2]; 5 hours post-treatment, ip) was about 120 fold and the “Increase in hepatic GM-CSF level vs vehicle” value ([2]; 5 hours post-treatment, ip) was about 1.5 fold. For the same compound, the “Increase in hepatic IFNγ level vs vehicle” value ([2]; 5 hours post-treatment, ip) was about 8 fold, the “Increase in hepatic IL-1β level vs vehicle” value ([2]; 5 hours post-treatment, ip) was about 1.5 fold and the “Increase in hepatic IL-4 level vs vehicle” value ([2]; 5 hours post-treatment, ip) was about 30 fold. For the same compound, the “Increase in hepatic IL-5 level vs vehicle” value ([2]; 5 hours post-treatment, ip) was about 2 fold, the “Increase in hepatic IL-6 level vs vehicle” value ([2]; 5 hours post-treatment, ip) was about 1.5 fold and the “Increase in hepatic IL-12 level vs vehicle” value ([2]; 5 hours post-treatment, ip) was about 1.5 fold. For the same compound, the “Increase in hepatic IL-12p40 level vs vehicle” value ([2]; 5 hours post-treatment, ip) was about 1.5 fold, the “Increase in hepatic IL-12p70 level vs vehicle” value ([2]; 5 hours post-treatment, ip) was about 1.5 fold and the “Increase in hepatic IL-15 level vs vehicle” value ([2]; 5 hours post-treatment, ip) was about 1.5 fold. For the same compound, the “Increase in hepatic IL-17 level vs vehicle” value ([2]; 5 hours post-treatment, ip) was about 1.5 fold, the “Increase in hepatic TNFα level vs vehicle” value ([2]; 5 hours post-treatment, ip) was about 1.5 fold and the “Hepatic levels of IL-2, IL-10, IL-13, IL-7, IL-9, M-CSF, G-CSF, LIF, IL-3, CCL3/MIP-1α, CCL4/MIP-1β, CXCL2/MIP-2, CCL11/Eotaxin-1, CCL5/RANTES” value ([2]; 5 hours post-treatment, data not shown) was “unaltered”. For the same compound, the “Hepatic levels of the chemokines CXCL10/IP-10 and CXCL9/MIG vs vehicle” value ([2]; 5 hours post-treatment, in words) was “striking increases”, the “Hepatic levels of CCL2/MCP-1, CCL4/MIP-1β, CCL5/RANTES, CCL11/eotaxin-1, CCL3/MIP-1a” value ([2]; after mirtazapine treatment) was “no significant changes” and the “Hepatic IL-10 levels” value [2, 3] was “unchanged”. For the same compound, the “Increase in hepatic IL-4 levels” value [2, 3] was 50 fold, the “Cellular expression levels of FOXP3 in hepatic Tregs (MFI)” value (hepatic immune cells; [4]) was “enhanced cellular expression levels of FOXP3” and the “Hepatic CD11b+CD11c+ dendritic cells as % of total CD11b+ cells” value (hepatic immune cells; [4]) was “relatively enriched”. For the same compound, the “Numbers of Tregs (CD4+CD25+FOXP3+) within the liver” value (hepatic immune cells; [4]) was “significantly increased numbers of Tregs”, the “Hepatic numbers of CD73 expressing T cells (CD3+CD73+)” value (hepatic immune cells; 5 hr (FIG. 11)) was “increases hepatic numbers of CD73 expressing T cells” and the “CXCR3+CD73+ B1a cells in the liver” value (hepatic immune cells; 5 hrs post-treatment) was “significantly increased recruitment”. The “Expression intensity of FOXP3 per cell (MFI)” value (hepatic immune cells; 5 hrs post-treatment) was “significantly increased”, the “Hepatic B1a cells” value (hepatic immune cells; 5 hrs post-treatment) was “significant increase” and the “Hepatic B1b cells” value (hepatic immune cells; 5 hrs post-treatment) was “remained unchanged”. For the same compound, the “Hepatic B2 cells” value (hepatic immune cells; 5 hrs post-treatment) was “decrease”, the “Increase in hepatic numbers of CD4+CD25+FOXP3+ T cells (Tregs)” value (hepatic immune cells; 5 hrs post-treatment) was about 2 fold and the “Reduction of hepatic LY6Chi monocyte population” value (hepatic immune cells; 5 hrs post-treatment) was about 2.5 fold. The “Total hepatic leukocyte numbers (CD45+)” value (hepatic immune cells; 5 hrs post-treatment) was “did not alter total overall hepatic leukocyte numbers”, the “Total numbers of hepatic monocytes (CD11b+LY6C+)” value (hepatic immune cells; 5 hrs post-treatment) was “significant reduction” and the “Hepatic numbers of repair monocytes (CD11b+Ly6Clow)” value (hepatic immune cells; 5 hrs post-treatment (FIG. 4H)) was “significantly reduces”. For the same compound, the “CXCL10 expression in hepatic monocytes and dendritic cells (MFI)” value (hepatic immune cells; flow cytometry, vs vehicle) was “increased CXCL10 expression”, the “Hepatic CD11b+Ly6Chi (inflammatory) monocytes” value (hepatic immune cells; pilot study, 20 mg/kg, 4 hrs) was “rapid striking reduction” and the “Hepatic CD11b+Ly6Clo (anti-inflammatory/repair) monocyte numbers” value (hepatic immune cells; pilot study, 20 mg/kg, 4 hrs) was “no change”. The “Circulating TNFα levels” value (circulating TNFα) was “increased circulating TNFα levels”.
